Measured values: publication PMC7503308, “A Novel Urease Inhibitor of Ruminal Microbiota Screened through Molecular Docking” (International Journal of Molecular Sciences, 2020)
Like-named read-outs stand apart in the source and are kept apart here.

Columns and labels:
ruminal microbial urease = assay: Urease inhibition assay (Berthelot alkaline phenol-hypochlorite method); format: biochemical, rumen bacteria of Chinese Holstein dairy cows; conditions: ruminal microbial urease, 37 °C, 30 min, pH 7.5
Method: Rumen fluid samples were collected from five Chinese Holstein dairy cows with permanent rumen fistula 3 h after feeding a total mixed ration in the morning. All the operations were conducted in accordance with the protocol approved by the Animal Care and Use Committee for Livestock of the Institute of Animal Sciences, Chinese Academy of Agricultural Sciences (Permit Number: IAS2019-14, Permit Date: 22-03-2019). All rumen fluid samples were filtered by a six layer sterilized medical gauze and mixed in a sterilized beaker before being evenly distributed into different 50 mL tubes and stored in liquid nitrogen. The deforested samples were centrifuged at 12,000× g for 10 min at 4 °C, then the supernatant was removed from the tube. The remaining sediments were resuspended in a HEPES buffer solution (pH 7.5, 50 mM) and then centrifuged at 12,000× g for 10 min at 4 °C. The supernatant was discarded and the remaining rumen bacteria were collected and stored at −80 °C for later urease extraction. All the sample handing processes were conducted on an ice bath. […]
In vitro urease inhibition screening assays were conducted to further narrow the virtual screened compounds for further IC50 determination and kinetic characterization. […] The ammonia that was produced was measured using 50 μL of a phenol reagent containing 10.0 g/L phenol and 50 mg/L of sodium nitroprusside, and 50 μL of alkali reagent containing 5 g/L sodium hydroxide and 8.4 mL/L of sodium hypochlorite solution, at 37 °C for 30 min. The absorbance of each well was measured at 625 nm by a micro plate spectrophotometer (Thermo Scientific Varioskan Flash G-282, Thermo Scientific, Waltham, MA, USA). The endogenous nitrogen (blank) was measured by adding a 70 μL HEPES buffer (pH 7.5, 50 mM) containing no urea and 20 μL methanol solution in the first 30 min of the reaction mixture. The 100% initial activity was determined by adding a 15 μL methanol solution in the first 30 min of the reaction mixture. […]

jack bean urease = test system: jack bean urease; parameters: method as in PMID 17418881; conditions: cited from earlier work
ruminal microbiota [1] = conditions: cited from earlier work
[2] = parameters: method as in PMID 19050709; conditions: human patients; cited from earlier work
Caco-2 cells = assay: CCK8 colorimetric cytotoxicity assay; format: cell-based; conditions: concentration below 100 μM, 24 h, p > 0.05
Method: A standard CCK8 colorimetric assay was employed for the evaluation of cytotoxic activity of compound 6238-0047 using 96-well flat bottomed microplates. Dulbecco’s Modified Eagle Medium (GIBCO) with 10% FBS (fetal bovine serum, FBS, Gibco) and 1% NEAA was used for the culturing of Caco-2 cells (ATCC, Manassas, VA, USA), and the medium was supplemented with 100 μg/mL of streptomycin and 100 IU/mL of penicillin. The medium was kept in 5% CO2 and incubated at 37 °C. The exponentially grown cells were harvested, counted using a hemocytometer and diluted with the medium. The cell culture was diluted to a density of 1 × 10^5 cells/mL and transferred into a 96-well plate with 135 μL or […]. The medium was incubated for 24 h for cell attachment. Following this, 15 μL of compounds with different final concentrations of 1, 10, 25, 50, and 100 μM in the experimental group and fresh medium as a control group, were added to a plate with five replicates for each. After 24 h of incubation at 37 °C and kept in 5% CO2, 15 μL of CCK8 was added to each well and after 2 h the absorbance was measured at 450 nm using a microplate reader. The formula for calculating the relative cell viability was as follows:Relative cell viability (%) = absorbance of experimental group/absorbance of control group × 100%

H. pylori urease = test system: H. pylori urease; parameters: method as in PMID 23567958; conditions: cited from earlier work
ruminal microbiota [3] = assay: Ruminal microbial fermentation in vitro (six generations): urea and NH3-N; format: cell-based, rumen fluid of Chinese Holstein dairy cows; conditions: 100 μM compound, 24 h, p < 0.01
Method: Seven solutions were prepared for the anaerobic media as solution A (3 g/L K2HPO4), solution B (0.6 g/L CaCl2, 3 g/L K2HPO4, 6 g/L NaCl, 0.6 g/L MgSO4·7H2O), solution C (6 g/L K2HPO4), solution D (1.6 g/L CaCl2·2H2O, 6 g/L K2HPO4, 12 g/L NaCl, 2.5 g/L MgSO4·7H2O), trace element solution (300 mg/L H3BO3, 100 mg/L ZnSO4·7H2O, 30 mg/L MnCl2·4H2O, 20 mg/L CoCl2·6H2O, 30 mg/L Na2MoO4·2H2O, 10 mg/L Na2SeO3, 20 mg/L NiCl2, 10 mg/L CuCl2·2H2O, 150 mg/L FeCl2·4H2O), volatile fatty acid (VFA) mixed solution (17 mL acetic acid, 6 mL propionic acid, 4 mL butyric acid, 1 mL n-valeric acid, 1 mL isovaleric acid, and 1 mL isobutyric acid), and hemin solution, prepared by diluting 50 mg of Haemon in NaOH (1 N solution) and made up to 100 mL with distilled water. Each liter of anaerobic media contained 30 mL of autoclaved rumen fluid supernatant, 0.5 g of glucose, 0.5 g of soluble starch, 0.5 g of cellobiose, 0.5 g of maltose, 0.5 g of […], 0.5 g of tripticase, 0.5 g of yeast extract, 8 g of NaHCO3, 0.1 mL of trace elements solution, 15 mL solution A, 15 mL solution B, 0.5 g of cysteine hydrochloride, 10 mL of hemin solution, 3.1 mL of VFA mixed solution, and 1 mg resazurin. The anaerobic urea solution was prepared using an anaerobic glove box, by dissolving 2.5 g of urea in a 50 mL anaerobic diluent. This diluent consisted of 3.8 mL of salt solution C, 3.8 mL of salt solution D, 5 mL of 8% sodium Na2CO3, 1 mL of 0.1% resazurin, 0.5 g of cysteine hydrochloride dissolved in distilled water and made up to 1000 mL and distributed into 50 mL anaerobic bottles. All the anaerobic bottles were sterilized by autoclave. Prior to the inoculation, fresh frozen rumen fluid samples, pretreated as described previously, were removed from the freezer, thawed, homogenized, and used immediately. […] Chromatographic gradients were referenced to the paper.

rumen microbiota = test system: rumen microbiota; parameters: method as in PMID 10682821; conditions: cows with permanent rumen fistula, cited from earlier work

SMILES	IC50 (ruminal microbial urease) [µM]	IC50 (jack bean urease) [µM]	AHA degradation (ruminal microbiota [1]) [%]	Patients with dermatological, neurological or hematological issues necessitating discontinuation of therapy [2]	Relative cell viability of Caco-2 cell culture (Caco-2 cells)	IC50 (H. pylori urease) [µM]	Amount of urea degradation vs control group (ruminal microbiota [3]; 16.65 mM urea)	NH3-N concentration / production vs control group (ruminal microbiota [3])	Ruminal ammonia nitrogen production vs control group (rumen microbiota; fifteenth day of treatment)	Ruminal ammonia nitrogen production vs control group (rumen microbiota; second day of treatment)
CC(=O)NO [AHA, acetohydroxamic acid, reference compound]	158	60	100	more than 20%	no significant influence	18.2	significantly lowered the amount of urea degradation	significantly lower than the control group	–	–
CCCCNP(N)(N)=S [NBPT, N-(n-butyl) thiophosphoric triamide]	–	–	–	–	–	–	–	–	tended to approach the control group	lower than that of the control group
